From ChEMBL document CHEMBL4024791, “Identification of Morpholino-2H-pyrido[3,2-b][1,4]oxazin-3(4H)-ones as Nonsteroidal Mineralocorticoid Antagonists” (J Med Chem, 2018)
pIC50: −log10 of the molar value. The source made the active and inactive calls. No cut-off for these calls is given here.

Key:
[1] = Intrinsic clearance in human liver microsomes
[2] = Distribution coefficient, log D of the compound; type: physicochemical; conditions: octanol/water
[3] = molecular target: T1, Mineralocorticoid receptor (Homo sapiens, UniProt P08235)
T1 sequence (P08235 whole entry): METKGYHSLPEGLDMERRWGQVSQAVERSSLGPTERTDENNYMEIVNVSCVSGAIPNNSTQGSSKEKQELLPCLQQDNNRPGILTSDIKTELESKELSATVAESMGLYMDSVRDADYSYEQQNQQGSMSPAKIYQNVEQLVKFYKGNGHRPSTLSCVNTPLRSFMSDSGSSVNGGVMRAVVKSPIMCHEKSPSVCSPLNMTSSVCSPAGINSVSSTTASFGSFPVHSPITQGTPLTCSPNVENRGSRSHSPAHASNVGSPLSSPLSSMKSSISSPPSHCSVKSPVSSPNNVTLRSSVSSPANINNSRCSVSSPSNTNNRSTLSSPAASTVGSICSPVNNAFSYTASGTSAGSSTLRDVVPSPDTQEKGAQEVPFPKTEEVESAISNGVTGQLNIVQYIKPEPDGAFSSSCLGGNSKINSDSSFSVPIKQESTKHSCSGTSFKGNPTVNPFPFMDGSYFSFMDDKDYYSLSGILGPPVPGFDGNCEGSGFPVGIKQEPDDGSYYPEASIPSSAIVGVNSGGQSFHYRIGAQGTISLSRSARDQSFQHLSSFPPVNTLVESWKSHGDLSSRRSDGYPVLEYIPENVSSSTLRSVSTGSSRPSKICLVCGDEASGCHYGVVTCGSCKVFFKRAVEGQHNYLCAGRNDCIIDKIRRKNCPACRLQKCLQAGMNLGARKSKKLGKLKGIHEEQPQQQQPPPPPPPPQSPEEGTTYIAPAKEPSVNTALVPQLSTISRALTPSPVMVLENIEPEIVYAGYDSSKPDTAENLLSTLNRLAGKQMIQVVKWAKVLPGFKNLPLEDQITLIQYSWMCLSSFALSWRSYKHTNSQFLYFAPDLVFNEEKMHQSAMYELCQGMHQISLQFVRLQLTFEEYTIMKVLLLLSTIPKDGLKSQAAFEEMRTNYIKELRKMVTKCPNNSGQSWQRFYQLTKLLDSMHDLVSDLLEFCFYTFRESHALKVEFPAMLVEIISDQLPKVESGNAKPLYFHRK
Description: Displacement of [3H]-aldosterone from human GST-tagged MR ligand binding domain after 4 hrs by liquid scintillation counting

[4] = Clearance in rat at 1 mg/kg, iv; conditions: in vivo
[5] = Intrinsic clearance in rat liver microsomes
[6] = molecular target: T1, Mineralocorticoid receptor; remark: listed apart in the source
Description: Antagonist activity at human GAL4-DBD fused MR ligand binding domain transfected in human Huh7 cells co-expressing GAL4-RE-Luc assessed as reduction in aldosterone-induced luciferase activity after 16 hrs in presence of serum by luciferase reporter gene assay

Rattus norvegicus = test: In vivo antagonist activity at MR in Wistar rat assessed as increase in urinary Na+ /K+ ratio at 100 mg/kg, po administered as single dose measured after 2 to 6 hrs post dose; type: functional, organism-based

microsomal CLint [1] [µL/min/mg]	logD [2]	pIC50 [3]	clearance [4] [mL/min/kg]	microsomal CLint [5] [µL/min/mg]	pIC50 [6]	SMILES	inhibition (Rattus norvegicus)
8	3.2	–	–	–	–	C[C@@H]1CN(c2ccc3c(n2)NC(=O)CO3)[C@H](c2ccc(F)cc2)CO1	–
–	2.7	–	–	–	–	C[C@H]1CN(c2ccc3c(n2)NC(=O)CO3)[C@H](c2ccccc2)CO1	–
14.8	1.8	< 5.00	52	44	5.00	O=C1COc2ccc(N3C[C@@H](CO)OC[C@H]3c3ccccc3)nc2N1	–
9.6	3.1	–	–	–	–	C[C@@H]1CN(c2ccc3c(n2)NC(=O)CO3)[C@H](c2cccc(F)c2)CO1	–
14	3.1	7.89	–	–	7.48	C[C@@H]1CN(c2ccc3c(n2)NC(=O)CO3)[C@H](c2ccccc2F)CO1	–

Further lines, the compound ahead of its results:

SMILES	microsomal CLint [1] [µL/min/mg]	logD [2]	pIC50 [3]	clearance [4] [mL/min/kg]	microsomal CLint [5] [µL/min/mg]	pIC50 [6]	inhibition (Rattus norvegicus)
CC1(C)CN(c2ccc3c(n2)NC(=O)CO3)[C@H](c2ccccc2)CO1	15.2	3.3	7.07	–	–	–	–
COC(=O)[C@@H]1CC2=CC(=O)CC[C@]2(C)[C@@]23O[C@@H]2C[C@@]2(C)[C@@H](CC[C@@]24CCC(=O)O4)[C@H]13	–	–	–	–	–	–	Active
C[C@@H]1CN(c2cnc3c(c2)NC(=O)CO3)[C@H](c2ccccc2)CO1	13.9	1.9	5.65	–	–	–	–
C[C@@H]1CN(c2ncc3c(n2)NC(=O)CO3)[C@H](c2ccccc2)CO1	8	2.7	6.95	95	146	–	–
COC[C@@H]1CN(c2ccc3c(n2)NC(=O)CO3)[C@H](c2ccccc2)CO1	8	2.5	6.56	–	–	6.45	–
C[C@@H]1CN(c2ccc3c(c2)NC(=O)CO3)[C@H](c2ccccc2)CO1	15.8	3.1	7.89	54	377	–	–
C[C@@H]1CN(c2cc3c(cn2)OCC(=O)N3)[C@H](c2ccccc2)CO1	12.6	2.5	6.96	–	–	–	–
N#CC[C@@H]1CN(c2ccc3c(n2)NC(=O)CO3)[C@H](c2ccccc2)CO1	11.9	2.3	7.25	–	–	–	–
O=C1COc2ccc(N3CCOC[C@H]3c3ccccc3)nc2N1	8.9	2.4	5.93	–	–	–	–
